# Results: patent publication US10328104B2, “Methods for treating nuclear factor kappa-light-chain-enhancer of activated B cell (NF-κB) dysregulation in a host in need thereof using eggshell membrane compositions” (ESM TECHNOLOGIES, LLC, priority 2015, dated 2019)
# Tests used:
# [1] = test system: human suffering from cardiovascular disease (hyperlipidemia, hypertriglyceridemia); test: Lipid panel in humans suffering from cardiovascular disease taking NEM orally, case reports; type: in vivo; conditions: second subject; treated with 10 mg/day atorvastatin, before NEM
# Experimental: (§1) The following examples are illustrative of the efficacy of an orally administered eggshell membrane product (trade name NEM®) in treating a human suffering from cardiovascular disease. […] The subject was treating their hypertension with 100 mg/day of atenolol. […] The subject had also had four cardiac stents placed to treat atherosclerotic stenosis (narrowing) of various cardiac blood vessels. The subject consumed one 500 mg capsule per day of NEM® as prepared in Example 5 for about 12 months before noticing an effect on lipid panel results. The subject continued the NEM® regimen for an additional approximately 12 months (about 2 years total). Follow-up lipid panel results were: TC=138 mg/dL, LDL=80 mg/dL, HDL=41 mg/dL, and TG=84 mg/dL. […] The subject also found it necessary to reduce the atenolol dose from 100 mg/day to 25 mg/day.
# A second human with a recent history of cardiovascular disease (hyperlipidemia & hypertriglyceridemia only) was being treated with 10 mg/day of atorvastatin. Treated lipid panel results for this subject were: TC=207 mg/dL, LDL=114 mg/dL, HDL=47 mg/dL, and TG=247 mg/dL. […] The subject consumed one 500 mg capsule per day of NEM® as prepared in Example 5 for about 2 years. Follow-up lipid panel results were: TC=150 mg/dL, LDL=81 mg/dL, HDL=46 mg/dL, and TG=113 mg/dL.
# [2] = test system: human suffering from cardiovascular disease (hypertension); test: Resting blood pressure in a human suffering from cardiovascular disease taking NEM orally, case report; type: in vivo; conditions: first subject; atenolol 100 mg/day, before NEM
# Experimental: as §1
SMILES,HDL [1] [mg/dL],LDL [1] [mg/dL],TG [1] [mg/dL],Total cholesterol (TC) [1] [mg/dL],resting diastolic blood pressure [2] [mm Hg],resting systolic blood pressure [2] [mm Hg]
CC(C)c1c(C(=O)Nc2ccccc2)c(-c2ccccc2)c(-c2ccc(F)cc2)n1CC[C@@H](O)C[C@@H](O)CC(=O)O [atorvastatin],47,114,247,207,,
CC(C)NCC(O)COc1ccc(CC(N)=O)cc1 (stereo not drawn) [atenolol],,,,,84,146
